Read-outs that look alike come from different tables or passages of the source.
Key:
[1] = Toxicokinetics in plasma after oral administration of bracken extract or dried bracken fern; assay type: in vivo, Jersey heifers; settings: for AUC0-∞ / MTT mean transit time: PTB in plasma; for Cmax / Tmax / k el: female, Jersey, plasma, po; for Cmax: read-out: Cmax maximum concentration; for k el: read-out: λz terminal slope (converted)
Method: (§1) Two heifers (no’s 4848 and 4849) were used in a series of five experiments (Table 1) in a cross-over design including intravenous administration of pure PTA, oral administration of bracken extract and oral administration of dried bracken fern. At least 2 weeks elapsed between each experiment.
(§2) Oral exposure, bracken extract. Bracken extract was administered orally by gavage in Experiment 2 (170 and 172 mL) and Experiment 5 (820 and 850 mL), to obtain PTA doses of 0.41 and 2 mg kg^-1 b.w (1.025 and 5.000 μmoles kg^-1), respectively. Blood and urine samples were collected up to 48 hours after gavage and samples were processed and stored as described previously.
(§3) Oral exposure, dried bracken fern. In Experiment 3, dried bracken fern was milled to a fine powder. Immediately before administration, the powder was mixed with water to produce a slurry (15 g of bracken per 100 mL of water). The slurry was administered orally by gavage (400 mL and 380 mL) corresponding to a PTA dose of 1.6 mg kg^-1 b.w (4 μmoles kg^-1). Blood and urine samples were collected up to 72 hours after gavage and the samples were processed and stored as described above.
(§4) Concentrations of PTA in plasma of individual animals were evaluated by non-compartmental analysis. Toxicokinetic variables were calculated using standard kinetic equations. The area under the curve (AUC) and the area under the first moment curve (AUMC) were determined using combined linear and natural logarithm trapezoidal rules. The terminal elimination rate was determined using the last three data points of the curve.
(§5) PTA and PTB were analysed by LC-MS after purification using solid phase extraction (SPE) columns as reported in Aranha et al.. The limit of quantification of PTA and PTB in plasma was 3.0 x 10^−3 μM and 9.30 x 10^−3 μM, respectively. Limit of quantifications in diluted urine was 13 x 10^−3 μM for PTA and 8.28 x 10^−3μM for PTB.

[2] = Urinary recovery after oral administration of bracken extract or dried bracken fern; assay type: in vivo, Jersey heifers; settings: oral bracken extract or dried fern, within 24 hours
Method: as §2, §3, §5

[3] = Presence of glucuronides and sulphates in urine (B-glucuronidase/arylsulfatase incubation); assay type: in vivo, Jersey heifers; settings: urine after iv PTA
Method: The presence of glucuronides and sulphates was assessed by incubating 1 ml of buffered urine samples in 0.1 M acetic acid buffer (pH 5) with or without addition of 100 μl of B-glucuronidase/arylsulfatase at 37°C for 3 hours on a shaking water bath. Afterwards, an aliquot of 950 μl of each samples were cleaned on the Oasis HLB cartridges and analysed as described for urine samples [22].

[4] = Toxicokinetics of PTA and PTB in plasma after intravenous administration of PTA; assay type: in vivo, Jersey heifers
Method: as §1
Intravenous administration of PTA. In Experiment 1 the dose of purified PTA (0.21 mg kg^-1 body weight (b.w.) / 0.527 μmoles kg^-1) was dissolved in 10 mL of sterile water in a brown glass vial 1 hour before administration and protected from light. The solution was injected through a catheter (Cavafix Certo: 45 cm, 16 G; B. Braun Melsungen AG, Melsungen, Germany) placed in the right jugular vein. Blood samples were collected through another catheter placed in the left jugular vein. Blood samples were collected in heparinized glass tubes before and at predetermined times (10, 20, 30, 45 min and 1, 2, 4, 6, 8, 12, 21 and 24 hours) after PTA administration. The blood was centrifuged for 15 min at 3000 g to separate plasma which then was stored immediately at -18°C until assayed within a week following the method of Aranha et al.. Urine was collected quantitatively in urinary bags (Ratiomed GmBH, München, Germany) through a Foley catheter (Rusch Silasil no 16; Teleflex, Milan, Italy) inserted into the bladder. Samples were collected before and at predetermined times (1, 2, 4, 6, 8, 12, 20 and 24 hours) after PTA administration. Two replicates from each sample were diluted 10 times (0.5 mL: 4.5 mL) with 0.1 M acetic acid, buffered to pH 5 with ammonium acetate and frozen immediately at -18°C until assayed within a week following the method of Aranha et al.. […] In this experiment, PTA was dissolved in sterile water immediately before injection.
as §4, §5

[5] = parameters: method as in PMID 21456622; settings: calves fed P. esculentum, PTA dose 4.5 μmol kg^-1 b.w.; cited from earlier work
[6] = oral bracken extract, PTA dose 1.03 μmoles kg^-1, heifer no 4848
[7] = oral bracken extract, PTA dose 1.03 μmoles kg^-1, heifer no 4849
[8] = oral bracken extract, PTA dose 5.02 μmoles kg^-1, heifer no 4848
[9] = oral bracken extract, PTA dose 5.02 μmoles kg^-1, heifer no 4849
[10] = oral dried bracken, PTA dose 4.02 μmoles kg^-1, heifer no 4848
[11] = oral dried bracken, PTA dose 4.02 μmoles kg^-1, heifer no 4849
[12] = bovine, 1.03 μmoles kg^-1, PTB in plasma, oral bracken extract, PTA dose 1.03 μmoles kg^-1, heifer no 4848
[13] = bovine, 1.03 μmoles kg^-1, PTB in plasma, oral bracken extract, PTA dose 1.03 μmoles kg^-1, heifer no 4849
[14] = bovine, 4.02 μmoles kg^-1, PTB in plasma, oral dried bracken, PTA dose 4.02 μmoles kg^-1, heifer no 4848
[15] = bovine, 4.02 μmoles kg^-1, PTB in plasma, oral dried bracken, PTA dose 4.02 μmoles kg^-1, heifer no 4849
[16] = bovine, 5.02 μmoles kg^-1, PTB in plasma, oral bracken extract, PTA dose 5.02 μmoles kg^-1, heifer no 4848
[17] = bovine, 5.02 μmoles kg^-1, PTB in plasma, oral bracken extract, PTA dose 5.02 μmoles kg^-1, heifer no 4849

Cc1cc2c(c(C)c1CCO)C(=O)[C@H](C)C2 [PTB, pterosin B]
AUC0-∞ [1, 6]: 0.177 µM·h | MTT mean transit time [1, 6]: 3.82 h | AUC0-∞ [1, 7]: 0.367 µM·h | MTT mean transit time [1, 7]: 4.55 h | AUC0-∞ [1, 8]: 0.594 µM·h | MTT mean transit time [1, 8]: 2.89 h | AUC0-∞ [1, 9]: 0.657 µM·h | MTT mean transit time [1, 9]: 3.02 h | AUC0-∞ [1, 10]: 0.897 µM·h | MTT mean transit time [1, 10]: 3.29 h | AUC0-∞ [1, 11]: 0.428 µM·h | MTT mean transit time [1, 11]: 3.58 h | PTB in plasma and urine after oral administration ([1]; bracken extract or dried ferns): detected in both plasma and urine | Cmax [1, 12]: 28 nM | Tmax ([1]; bovine, 1.03 μmoles kg^-1, PTB in plasma, oral bracken extract, PTA dose 1.03 μmoles kg^-1, heifer no 4848, read-out: Tmax time at maximum concentration): 120 min | k el [1, 12]: 6.5e-05 s⁻¹ | Cmax [1, 13]: 43 nM | Tmax ([1]; bovine, 1.03 μmoles kg^-1, PTB in plasma, oral bracken extract, PTA dose 1.03 μmoles kg^-1, heifer no 4849, read-out: Tmax time at maximum concentration): 30 min | k el [1, 13]: 2.78e-05 s⁻¹ | Cmax [1, 14]: 182 nM | Tmax ([1]; bovine, 4.02 μmoles kg^-1, PTB in plasma, oral dried bracken, PTA dose 4.02 μmoles kg^-1, heifer no 4848, read-out: Tmax time at maximum concentration): 30 min | k el [1, 14]: 8.56e-05 s⁻¹ | Cmax [1, 15]: 74 nM | Tmax ([1]; bovine, 4.02 μmoles kg^-1, PTB in plasma, oral dried bracken, PTA dose 4.02 μmoles kg^-1, heifer no 4849, read-out: Tmax time at maximum concentration): 120 min | k el [1, 15]: 7.78e-05 s⁻¹ | Cmax [1, 16]: 160 nM | Tmax ([1]; bovine, 5.02 μmoles kg^-1, PTB in plasma, oral bracken extract, PTA dose 5.02 μmoles kg^-1, heifer no 4848, read-out: Tmax time at maximum concentration): 60 min | k el [1, 16]: 0.000106 s⁻¹ | Cmax [1, 17]: 174 nM | Tmax ([1]; bovine, 5.02 μmoles kg^-1, PTB in plasma, oral bracken extract, PTA dose 5.02 μmoles kg^-1, heifer no 4849, read-out: Tmax time at maximum concentration): 45 min | k el [1, 17]: 8.06e-05 s⁻¹ | Tmax ([1]; cattle, PTB, oral bracken extract and bracken fern, read-out: time to maximum concentration in plasma (Tmax)): ~60 min | PTB recovered in urine [2]: up to 7 % of the dose | PTB recovered in urine ([2]; listed as Pterosin B): 7 % of the dose | conjugation with glucuronic acid or sulphate in urine [3]: not conjugated with either glucuronic acid or sulphate | AUC0-∞ ([4]; PTB in plasma after iv PTA 0.141 μmoles kg^-1, heifer no 4849, head prints Experiment 2): 0.319 µM·h | AUC0-∞ ([4]; PTB in plasma after iv PTA 0.231 μmoles kg^-1, heifer no 4848, head prints Experiment 2): 0.284 µM·h | AUC0-∞ ([4]; PTB in plasma after iv PTA 0.527 μmoles kg^-1, heifer no 4848, Experiment 1): 0.596 µM·h | AUC0-∞ ([4]; PTB in plasma after iv PTA 0.527 μmoles kg^-1, heifer no 4849, Experiment 1): 0.654 µM·h | Tmax ([4]; female, Jersey, cattle, plasma, 0.21 mg kg^-1 b.w., iv PTA, first sampling point, read-out: time of peak plasma concentration of the metabolite after administration of PTA (converted)): 10 min | ratio of AUC PTB to AUC PTA ([4]; heifer no 4848, Experiments 1 and 4): approx. 0.4 | ratio of AUC PTB to AUC PTA ([4]; heifer no 4849, additional iv experiment with lower dose): 0.76 | peak concentration of PTB in plasma relative to the single dose study of this paper [5]: 26 times

Reference: publication PMC6588243, “Fate of ptaquiloside—A bracken fern toxin—In cattle” (PLoS ONE, 2019)
